Data as given in paper PMC8776995 (Frontiers in Chemistry, 2022).
Several values for one entry are separate records, joined by “and”; a condition that tells them apart may be missing. Identical values can stand only once.

Assays:
[1] = tested on: H1975 cells; assay: CCK-8 antiproliferation assay, H1975
Description: The compounds were dissolved in DMSO to make a 20 μM stock solution and diluted to the concentration of working solutions with complete growth medium before administration.
Cells were seeded in 96-well plates: 3,000–5,000 cells/well in 100 ul. One day after seeding, the test compounds at concentration between 1.0 and 16.0 μ M or 0.1% DMSO (as control) were added to cells in triplicate. 48 h later, CCK-8 was added and incubated the plate for 1–4 h in the incubator. The absorbance at 450 nm were measured using a microplate reader (Bio-Tek).

[2] = tested on: H460 cells; assay: CCK-8 antiproliferation assay, H460; conditions: for Inhibitory efficacy: H460 cells
[3] = tested on: A549 cells; assay: CCK-8 antiproliferation assay, A549; conditions: for Inhibitory efficacy: A549 cells
[4] = tested on: PC-9 cells; assay: CCK-8 antiproliferation assay, PC-9; conditions: Homo sapiens, PC-9, 48 h, read-out: IC50 (μM) PC-9
[5] = target: wild-type EGFR (Homo sapiens, UniProt P00533); assay: EGFR kinase assay (ELISA); conditions: for A450: raw ELISA absorbance
wild-type EGFR, sequence (P00533 25-1210): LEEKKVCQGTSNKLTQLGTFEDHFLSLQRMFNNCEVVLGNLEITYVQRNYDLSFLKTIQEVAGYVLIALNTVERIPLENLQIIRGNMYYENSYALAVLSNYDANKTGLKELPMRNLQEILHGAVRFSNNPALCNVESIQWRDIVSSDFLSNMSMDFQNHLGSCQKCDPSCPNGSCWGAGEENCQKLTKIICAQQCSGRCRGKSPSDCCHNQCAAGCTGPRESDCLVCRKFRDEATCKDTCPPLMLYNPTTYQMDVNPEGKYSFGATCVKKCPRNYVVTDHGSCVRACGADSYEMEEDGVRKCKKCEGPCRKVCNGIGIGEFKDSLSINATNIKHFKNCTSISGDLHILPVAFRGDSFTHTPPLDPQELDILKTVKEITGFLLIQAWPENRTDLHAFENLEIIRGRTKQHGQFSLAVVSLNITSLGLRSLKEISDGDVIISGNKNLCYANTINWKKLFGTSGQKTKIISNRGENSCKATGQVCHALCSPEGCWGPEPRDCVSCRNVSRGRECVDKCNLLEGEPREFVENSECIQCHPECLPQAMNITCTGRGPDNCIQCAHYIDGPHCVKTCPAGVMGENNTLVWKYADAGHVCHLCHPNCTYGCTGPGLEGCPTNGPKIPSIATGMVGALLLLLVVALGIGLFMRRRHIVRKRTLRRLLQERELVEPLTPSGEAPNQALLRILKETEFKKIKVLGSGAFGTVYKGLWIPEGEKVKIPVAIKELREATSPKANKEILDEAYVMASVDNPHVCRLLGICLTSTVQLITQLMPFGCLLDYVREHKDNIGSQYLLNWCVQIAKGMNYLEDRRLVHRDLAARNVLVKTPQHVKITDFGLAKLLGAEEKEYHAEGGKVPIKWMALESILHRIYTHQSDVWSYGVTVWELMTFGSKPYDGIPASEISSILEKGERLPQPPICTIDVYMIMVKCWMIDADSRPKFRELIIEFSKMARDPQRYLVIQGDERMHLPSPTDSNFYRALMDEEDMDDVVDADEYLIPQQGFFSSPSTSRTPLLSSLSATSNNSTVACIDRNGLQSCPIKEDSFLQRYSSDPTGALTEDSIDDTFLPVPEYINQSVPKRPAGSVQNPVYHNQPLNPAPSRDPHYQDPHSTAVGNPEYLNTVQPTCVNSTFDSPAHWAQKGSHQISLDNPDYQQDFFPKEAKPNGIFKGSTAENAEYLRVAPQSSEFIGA

[6] = 4uM, given as fraction, Repeat 1-3

IC50 ([1]; Homo sapiens, NCI-H1975, 48 h, read-out: IC50 (μM) H1975, CCK-8, 48 h, average ± SD of three independent experiments): > 100 µM | IC50 ([2]; Homo sapiens, NCI-H460, 48 h, read-out: IC50 (μM) H460, CCK-8, 48 h, average ± SD of three independent experiments): > 100 µM | IC50 ([3]; Homo sapiens, A549, 48 h, read-out: IC50 (μM) A549, CCK-8, 48 h, average ± SD of three independent experiments): > 100 µM | melting point: 109 to 112 °C | IC50 [4]: > 100 µM | IC50 ([5]; IC50 (μM) EGFR, ELISA, 3 μmol/L ATP): 0.28 µM | inhibition at 100 fM ([5]; concentration 0.0001 nM (reference for normalisation), one value per replicate column): 0% | inhibition at 30 pM ([5]; concentration 0.03 nM, one value per replicate column): 3.3% | Inhibition ([5]; concentration 0.03 nM, one value per replicate column, 3e-05 µM): 3.99 | inhibition at 0.0003 µM ([5]; concentration 0.3 nM, one value per replicate column): 21.7% | Inhibition ([5]; concentration 0.3 nM, one value per replicate column, 0.0003 µM): 27.0358 | inhibition at 0.003 µM ([5]; concentration 3 nM, one value per replicate column): 38.5% | Inhibition ([5]; concentration 3 nM, one value per replicate column, 0.003 µM): 33.7948 | inhibition at 0.03 µM ([5]; concentration 30 nM, one value per replicate column): 40.5% | Inhibition ([5]; concentration 30 nM, one value per replicate column, 0.03 µM): 35.1792 | inhibition at 0.3 µM ([5]; concentration 300 nM, one value per replicate column): 42.1% | Inhibition ([5]; concentration 300 nM, one value per replicate column, 0.3 µM): 40.798 | inhibition at 3 µM ([5]; concentration 3000 nM, one value per replicate column): 55.8% | Inhibition ([5]; concentration 3000 nM, one value per replicate column, 3 µM): 51.9544 | inhibition at 30 µM ([5]; concentration 30000 nM, one value per replicate column): 88.6% | Inhibition ([5]; concentration 30000 nM, one value per replicate column, 30 µM): 85.4235 | A450 ([5]; concentration 0.0001 nM): 1.605 and 1.533 | A450 ([5]; concentration 0.03 nM): 1.562 and 1.484 | A450 ([5]; concentration 0.3 nM): 1.323 and 1.201 | A450 ([5]; concentration 3 nM): 1.104 and 1.118 | A450 ([5]; concentration 30 nM): 1.078 and 1.101 | A450 ([5]; concentration 300 nM): 1.057 and 1.032 | A450 ([5]; concentration 3000 nM): 0.879 and 0.895 | A450 ([5]; concentration 30000 nM): 0.452 and 0.484
SMILES: COCCOc1cc2ncnc(Nc3cccc(-c4cn(CCc5ccccc5)nn4)c3)c2cc1OCCOC [e20, [6,7-Bis-(2-methoxy-ethoxy)-quinazolin-4-yl]-[3-(1-phenethyl-1H-[1,2,3]triazol-4-yl)-phenyl]-amine]
Inhibitory efficacy ([1]; H1975 cells, 16uM, given as fraction, Repeat 1-3): 0.06216 and 0.05712 | inhibition at 16 µM ([1]; Homo sapiens, NCI-H1975, read-out: Inhibitory efficacy, H1975 cells, 16uM, given as fraction, Repeat 1-3): 8.81% | Inhibitory efficacy ([2]; 1uM, given as fraction, Repeat 1-3): 0.1948 and 0.1895 | Inhibitory efficacy [2, 6]: 0.1258 and 0.07143 | inhibition at 1 µM ([2]; Homo sapiens, NCI-H460, read-out: Inhibitory efficacy, H460 cells, 1uM, given as fraction, Repeat 1-3): 17.3% | inhibition at 4 µM ([2]; Homo sapiens, NCI-H460, read-out: Inhibitory efficacy, H460 cells, 4uM, given as fraction, Repeat 1-3): 9.76% | Inhibitory efficacy ([3]; 2uM, given as fraction, Repeat 1-3): 0.2224 and 0.1702 | Inhibitory efficacy [3, 6]: 0.2939 and 0.3309 | Inhibitory efficacy ([3]; 8uM, given as fraction, Repeat 1-3): 0.2956 and 0.3275 | Inhibitory efficacy ([3]; 16uM, given as fraction, Repeat 1-3): 0.2156 and 0.1736 | inhibition at 2 µM ([3]; Homo sapiens, A549, read-out: Inhibitory efficacy, A549 cells, 2uM, given as fraction, Repeat 1-3): 18.8% | inhibition at 4 µM ([3]; Homo sapiens, A549, read-out: Inhibitory efficacy, A549 cells, 4uM, given as fraction, Repeat 1-3): 29.1% | inhibition at 8 µM ([3]; Homo sapiens, A549, read-out: Inhibitory efficacy, A549 cells, 8uM, given as fraction, Repeat 1-3): 22.2% | inhibition at 16 µM ([3]; Homo sapiens, A549, read-out: Inhibitory efficacy, A549 cells, 16uM, given as fraction, Repeat 1-3): 20.2%
